The results in this text go back to ChEMBL document CHEMBL5055627 (J Med Chem, 2021).

Data set [1] can be described thus: Inhibition of Mycobacterium tuberculosis 20S proteasome open gate mutant expressed in Escherichia coli BL21(DE3) using Suc-LLVY-AMC as substrate measured over 1.5 to 2 hrs by plate reader assay.
The test system of data set [2] is human 20S constitutive proteasome subunit beta-5c (versus Mycobacterium tuberculosis 20S open gate mutant). Nature of the data set: Selectivity index, ratio of IC50 for human 20S constitutive proteasome subunit beta-5c to IC50 for Mycobacterium tuberculosis 20S open gate mutant. The class given is toxicity. The settings on record: read-out: Ratio IC50.
The subject of data set [3] is human 20S immunoproteasome subunit beta-5i (versus Mycobacterium tuberculosis 20S open gate mutant). Nature of the data set: Selectivity index, ratio of IC50 for human 20S immunoproteasome subunit beta-5i to IC50 for Mycobacterium tuberculosis 20S open gate mutant. The settings on record: read-out: Ratio IC50. The class given is toxicity.

As for `O=C1CCCCCCCCC[C@@H](C(=O)NCc2cccc3ccccc23)NC(=O)[C@H](CC(=O)N2CCCC2)N1`, the IC50 (commonly the concentration that gives 50% inhibition) in data set [1] came out at 710 nM.

Compound `O=C1CCCCCCCCOC[C@@H](C(=O)NCc2cccc3ccccc23)NC(=O)[C@H](CC(=O)N2CCCC2)N1` returned an IC50 in data set [1] of 100 nM.

With `CC(=O)N[C@H]1Cc2cccc(c2)Oc2ccc(cc2)C[C@@H](C(=O)NCc2ccccc2F)NC(=O)[C@H](CC(=O)N2CCC[C@@H]2c2ccccc2)NC1=O`, the selectivity ratio in data set [2] and in data set [3] was above 594 throughout. This compound returned an IC50 in data set [1] of 170 nM.

Turning to `O=C1CCc2cccc(c2)OCCCC[C@@H](C(=O)NCc2ccccc2F)NC(=O)[C@H](CCN2CCC[C@@H]2c2ccccc2)N1`, the selectivity ratio came to 57 in data set [2] and 31 in data set [3]. The compound also registered an IC50 in data set [1] of 1500 nM.

Take `O=C1N[C@@H](CC(=O)N2CCCC2)C(=O)N[C@H](C(=O)NCc2cccc3ccccc23)CCCCCCCCCC1Cc1ccccc1` (some centres undefined): the IC50 in data set [1] turned out to be 5000 nM.

On to `O=C1CCc2cccc(c2)OCCCC[C@@H](C(=O)NCc2ccccc2F)NC(=O)[C@H](CC(=O)N2CCC[C@H]2C2CC2)N1`, for which the selectivity ratio in data set [2] was found to be 19; in data set [3], 11. Besides, the IC50 in data set [1] was 79 nM.

Take `O=C1CCc2cccc(c2)OCCCC[C@@H](C(=O)NCc2ccccc2F)NC(=O)[C@H](CC(=O)N2CCC[C@@H]2c2ccccc2)N1`: the selectivity ratio in data set [2] and in data set [3] was above 14000 each time. Moreover, the IC50 in data set [1] was determined as 7 nM.

Turning to `O=C(N[C@H]1Cc2cccc(c2)Oc2ccc(cc2)C[C@@H](C(=O)NCc2ccccc2F)NC(=O)[C@H](CC(=O)N2CCC[C@@H]2c2ccccc2)NC1=O)c1ccccc1`, the selectivity ratio in data set [2] and in data set [3] was above 119 throughout. Besides, the IC50 in data set [1] amounted to 840 nM.

Turning to `O=C1CCc2cccc(c2)OCCCC[C@@H](C(=O)NCc2ccccc2F)NC(=O)[C@H](CC(=O)N2CCC[C@@H]2C2CC2)N1`, the selectivity ratio in data set [2] and in data set [3] was 11 throughout. In addition, the IC50 in data set [1] was determined as 7 nM.

In the case of `O=C1CCc2cccc(c2)Oc2ccc(cc2)C[C@@H](C(=O)NCc2ccccc2F)NC(=O)[C@H](CC(=O)N2CCC[C@@H]2c2ccccc2)N1`, the selectivity ratio in data set [2] and in data set [3] was above 13600 in each case. This compound yielded an IC50 in data set [1] of 7.4 nM.

Consider `O=C1CCCCCCCCOC[C@@H](C(=O)NCc2ccccc2F)NC(=O)[C@H](CC(=O)N2CCC[C@@H]2c2ccccc2)N1`, for which the selectivity ratio in data set [2] and in data set [3] was above 14000 each time. The compound also showed an IC50 in data set [1] of 7 nM.

The compound `O=C1CCCCCCCCCC[C@@H](C(=O)NCc2cccc3ccccc23)NC(=O)[C@H](CC(=O)N2CCCC2)N1` registered an IC50 in data set [1] of 150 nM. This counts as sub-micromolar.

As for `CCN(CC)C(=O)C[C@H](NC(=O)CCc1ccccc1)C(=O)N[C@@H](Cc1ccc(F)cc1)C(=O)NCc1cccc2ccccc12`, the selectivity ratio in data set [2] turned out to be 4670; in data set [3] it was 3650. Further, in data set [1], the IC50 amounted to 15 nM.

The compound `Cc1ccc(CNC(=O)[C@@H]2Cc3cccc(c3)Oc3cccc(c3)C[C@H](N)C(=O)N[C@@H](CCc3ccccc3)C(=O)N2)cc1` had a half-maximal inhibitory concentration (IC50) in data set [1] above 100000 nM.

`O=C1CCc2cccc(c2)Oc2ccc(cc2)C[C@@H](C(=O)NCc2ccccc2F)NC(=O)[C@H](CC(=O)N2CCCC2)N1` returned an IC50 in data set [1] of 200 nM. For the same compound, the selectivity ratio in data set [3] worked out at 108.
